# Reference: ChEMBL document CHEMBL4811259, “Novel 1-(prop-2-yn-1-ylamino)-2,3-dihydro-1H-indene-4-thiol derivatives as potent selective human monoamine oxidase B inhibitors: Design, SAR development, and biological evaluation” (Bioorg Med Chem Lett, 2021)
# Calls of active or inactive are those of the source. The rule behind the calls is not given here.
# Tests used:
# [1] = target: T1, Amine oxidase [flavin-containing] B (Homo sapiens, UniProt P27338); experiment: Inhibition of human MAO-B
# T1 sequence (P27338 whole entry): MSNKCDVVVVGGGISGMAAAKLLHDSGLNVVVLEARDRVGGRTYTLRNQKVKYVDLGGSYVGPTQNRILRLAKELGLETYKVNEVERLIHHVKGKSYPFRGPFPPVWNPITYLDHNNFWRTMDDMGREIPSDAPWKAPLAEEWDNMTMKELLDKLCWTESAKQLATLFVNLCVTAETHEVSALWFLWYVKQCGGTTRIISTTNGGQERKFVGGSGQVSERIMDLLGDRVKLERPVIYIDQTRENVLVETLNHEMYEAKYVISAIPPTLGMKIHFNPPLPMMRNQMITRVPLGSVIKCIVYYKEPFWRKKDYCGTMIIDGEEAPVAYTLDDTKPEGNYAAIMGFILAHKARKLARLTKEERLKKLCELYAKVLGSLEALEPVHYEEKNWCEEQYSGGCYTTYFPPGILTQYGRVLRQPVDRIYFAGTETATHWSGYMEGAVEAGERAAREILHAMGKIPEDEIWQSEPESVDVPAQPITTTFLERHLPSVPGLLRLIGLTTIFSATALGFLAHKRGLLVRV
# [2] = Selectivity index, ratio of IC50 for human MAO-A to IC50 for human MAO-B
# SH-SY5Y [3] = experiment: Neuroprotective activity against LPS-induced oxidative stress in human SH-SY5Y cells assessed as decrease in ROS level at < 20 uM after 24 hrs by DCFH-DA dye based fluorescence assay; assay type: functional, cell-based; settings: dose microM <20, time 24.0 hrs
# SH-SY5Y [4] = experiment: Cytotoxicity against human SH-SY5Y cells assessed as induction of cell death at 50 uM after 24 hrs by MTT assay relative to control; assay type: cell-based
# BV-2 [5] = experiment: Cytotoxicity against C57/BL6 mouse BV-2 cells assessed as induction of cell death at 50 uM after 24 hrs by MTT assay relative to control; assay type: cell-based; settings: bv-2, 24 h
# Mus musculus [6] = experiment: Neuroprotective activity against MPTP-induced C57BL/6J mouse model of Parkinson's disease assessed as increase in total distance at 0.2 mg/kg, ip pretreated for 7 consecutive days followed by MPTP challenge and further treated with compound until day 14 by open field test; assay type: functional, organism-based; settings: time 14.0 day
# SH-SY5Y [7] = experiment: Cytotoxicity against human SH-SY5Y cells at 5 to 50 uM after 24 hrs by MTT assay; assay type: cell-based; settings: dose 5-50 µM
# BV-2 [8] = experiment: Cytotoxicity against C57/BL6 mouse BV-2 cells at 5 to 50 uM after 24 hrs by MTT assay; assay type: cell-based; settings: bv-2, 24 h, dose 5-50 µM
# BV-2 [9] = experiment: Neuroprotective activity against LPS-induced oxidative stress in C57/BL6 mouse BV-2 cells assessed as decrease in ROS level at < 20 uM after 24 hrs by DCFH-DA dye based fluorescence assay; assay type: functional, cell-based; settings: dose microM <20, time 24.0 hrs
# Mus musculus [10] = experiment: Neuroprotective activity against MPTP-induced C57BL/6J mouse model of Parkinson's disease assessed as decrease in immobility time at 0.2 mg/kg, ip pretreated for 7 consecutive days followed by MPTP challenge and further treated with compound until day 14 by open field test; assay type: functional, organism-based; settings: time 14.0 day
# Mus musculus [11] = experiment: Neuroprotective activity against MPTP-induced C57BL/6J mouse model of Parkinson's disease assessed as increase in average speed at 0.2 mg/kg, ip pretreated for 7 consecutive days followed by MPTP challenge and further treated with compound until day 14 by open field test; assay type: functional, organism-based; settings: time 14.0 day
# [12] = target: T1, Amine oxidase [flavin-containing] B; experiment: Inhibition of human MAO-A; assay type: ADME
Structure (SMILES),IC50 [1] [µM],Ratio IC50 [2],further results
C#CCNC1CCc2c(SCCc3cccc(Cl)c3)cccc21 (stereo unspecified),82.4,,
C#CCNC1CCc2c(SCCc3ccc(Br)cc3)cccc21 (stereo unspecified),85.3,0.015,
C#CCNC1CCc2c(SCCc3ccc(C)cc3)cccc21 (stereo unspecified),25.8,0.18,
C#CCNC1CCc2c(SCc3ccc4ccccc4c3)cccc21 (stereo unspecified),4.95,14,
C#CCNC1CCc2c(SCc3cccc(Cl)c3)cccc21 (stereo unspecified),23.3,0.047,
C#CCNC1CCc2c(SCCc3ccc(Cl)c(Cl)c3)cccc21 (stereo unspecified),3.85,0.73,
C#CCNC1CCc2c(OCc3cccc(C(F)(F)F)c3)cccc21 (stereo unspecified),6.41,0.84,
C#CCNC1CCc2c(SCc3cccc(C)c3)cccc21 (stereo unspecified),> 100,,
C#CCNC1CCc2c(SCCc3ccc(F)c(F)c3)cccc21 (stereo unspecified),3.24,,
C#CCN[C@@H]1CCc2ccccc21 [RASAGILINE],,,Activity (SH-SY5Y [3]): Active; Activity (SH-SY5Y [4]): 30%; Activity (BV-2 [5]): 30%; Activity (Mus musculus [6]): Active; Activity (SH-SY5Y [7]): Non-Toxic; Activity (BV-2 [8]): Non-Toxic; Activity (BV-2 [9]): Active; Activity (Mus musculus [10]): Active; Activity (Mus musculus [11]): Active
C#CCNC1CCc2c(SCCc3cccc(Br)c3)cccc21 (stereo unspecified),30.5,0.02,
C#CCNC1CCc2c(SCc3ccc(Cl)cc3Cl)cccc21 (stereo unspecified),3.76,5.93,
C#CCNC1CCc2c(SCCc3ccc(C(F)(F)F)cc3)cccc21 (stereo unspecified),16.1,0.54,
C#CCNC1CCc2c(SCc3ccc(C(F)(F)F)cc3)cccc21 (stereo unspecified),9.68,0.096,
C#CCNC1CCc2c(SCCc3ccc(OC)cc3)cccc21 (stereo unspecified),62,13.5,
C#CCNC1CCc2c(SCCc3cccc(C(F)(F)F)c3)cccc21 (stereo unspecified),3.72,0.076,
C#CCNC1CCc2c(SCc3ccccc3)cccc21 (stereo unspecified),6.4,> 15.6,IC50 [12]: Not Active
C#CCNC1CCc2c(SCCc3cccc(OC)c3)cccc21 (stereo unspecified),28.7,0.13,
C#CCNC1CCc2c(SCc3cccc(Br)c3)cccc21 (stereo unspecified),> 100,,
C#CCNC1CCc2c(SCCc3ccc(Cl)cc3)cccc21 (stereo unspecified),10.8,0.085,
C#CCNC1CCc2c(NCc3cccc(C(F)(F)F)c3)cccc21 (stereo unspecified),5.11,2.21,
C#CCNC1CCc2c(SCCc3cccc(F)c3)cccc21 (stereo unspecified),4.3,1.82,

# The next lines start with results.
IC50 [1] [µM],Ratio IC50 [2],Structure (SMILES),further results
1.9,2.09,C#CCNC1CCc2c(SCc3ccc(OC)cc3)cccc21 (stereo unspecified),
2.43,0.61,C#CCNC1CCc2c(SCc3ccc(F)cc3F)cccc21 (stereo unspecified),
2.84,0.026,C#CCNC1CCc2c(SCc3ccc(Cl)c(Cl)c3)cccc21 (stereo unspecified),
0.00035,14200,C#CCNC1CCc2c(SCCc3cccc(C)c3)cccc21 (stereo unspecified),Activity (SH-SY5Y [3]): Active; Activity (SH-SY5Y [4]): 30%; Activity (BV-2 [5]): 30%; Activity (Mus musculus [6]): Active; Activity (SH-SY5Y [7]): Non-Toxic; Activity (BV-2 [8]): Non-Toxic; Activity (BV-2 [9]): Active; Activity (Mus musculus [10]): Active; Activity (Mus musculus [11]): Active
2.65,0.99,C#CCNC1CCc2c(SCc3ccc(F)c(F)c3)cccc21 (stereo unspecified),
3.19,0.48,C#CCNC1CCc2c(SCc3cccc(OC)c3)cccc21 (stereo unspecified),
1.31,0.37,C#CCNC1CCc2c(SCc3ccc(Br)cc3)cccc21 (stereo unspecified),
1.56,0.2,C#CCNC1CCc2c(SCc3ccc(C)cc3)cccc21 (stereo unspecified),
1.48,7.79,C#CCNC1CCc2c(SCc3cccc(F)c3)cccc21 (stereo unspecified),
0.0047,1640,C#CCNC1CCc2c(SCc3cccc(C(F)(F)F)c3)cccc21 (stereo unspecified),Activity (SH-SY5Y [3]): Active; Activity (SH-SY5Y [4]): 30%; Activity (BV-2 [5]): 30%; Activity (Mus musculus [6]): Active; Activity (SH-SY5Y [7]): Non-Toxic; Activity (BV-2 [8]): Non-Toxic; Activity (BV-2 [9]): Active; Activity (Mus musculus [10]): Active; Activity (Mus musculus [11]): Active
